Consider 72 compounds from PubChem BioAssay AID720588 (Broad Institute, 2013).

Structures are written as SMILES. Calls of active or inactive are those of the source.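 Rule for the calls: active = fitted curve falls past a set limit of signal loss at no more than twice the top dose; inconclusive = flat fit between 30 and 70% signal loss, or poor fit; inactive = signal rise, flat within 30%, or crossing too high.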

One experiment is described as follows: ATP-based viability loss in HEK293T cells – cell-based, CellTiter-Glo luminescence, cherry-pick, set 3, cytotoxicity control, dose response (AID 720588). The following applies: HEK293T viability, CellTiter-Glo ATP luminescence, 72 h; at 23.5 µM (top of the series).
In the case of `COC(=O)C[C@@H]1CC[C@@H]2[C@H](COc3ccc(NC(=O)c4cccc(Cl)c4)cc3C(=O)N2C)O1`, the activity change, negative = cytotoxicity is -19.6% (inactive).
Same read-out and setting: with `C[C@H]1CN([C@@H](C)CO)C(=O)Cc2cc(NC(=O)CCCCCC(=O)Nc3ccccc3N)ccc2O[C@H]1CN(C)Cc1ccc(Cl)c(Cl)c1` the figure was -33.8% (inactive); with `C[C@H](CO)N1C[C@H](C)[C@H](CN(C)Cc2ccccc2)Oc2ccc(NC(=O)CCCCCC(=O)Nc3ccccc3N)cc2CC1=O`, -0.084% (inactive).

The experiment is the same for the next values; noted with them: HEK293T viability, CellTiter-Glo ATP luminescence, 72 h; at 26 µM (top of the series).
Turning to `CC(=O)c1ccc(N(C(=O)Cn2nnc3ccccc32)C(C(=O)NCc2ccccc2)c2ccccn2)cc1` (configuration not stated), the activity change, negative = cytotoxicity was -21.8% (inactive).
The same measure, in the same setting: with `Brc1ccc(CSc2nnc(-c3ccco3)o2)cc1` the figure was -18% (inactive); with `COC(=O)C[C@@H]1CC[C@@H]2[C@@H](COc3ccc(NC(=O)Nc4ccc(C#N)cc4)cc3C(=O)N2C)O1`, 47.6% (inactive).
Still for that read-out and setting: with `COc1ccc(C2=NNC(=Nc3cc(S(=O)(=O)N(C)C)ccc3C)SC2)c(OC)c1` the figure was -17.5% (inactive); with `CCOC(=O)C1CCCCN1C(=O)CCc1c(C)nc2cc(-c3ccccc3)nn2c1C` (configuration not stated), -10.8% (inactive); with `O=C1CCCC2=C1C(c1ccccn1)Nc1ccc(C(=O)c3ccccc3)cc1N2` (configuration not stated), 7.12% (inactive).
Same read-out and setting: then `CN(C)c1ccc(N=Nc2ccc(C(=O)O)cc2)cc1`, with -1.83% (inactive); and `CC(C)(C)c1ccc(Cn2c(=O)cnc3ccccc32)cc1`, with -33.1% (inactive).
On to `OCC1OC(n2cnc3c(NCc4ccco4)ncnc32)C(O)C1O` (configuration not stated), for which the activity change, negative = cytotoxicity is -35.2% (inactive).
Same read-out and setting: then `Oc1c(Cl)cc(Cl)c2cccnc12`, with -45.5% (inactive); and `Nc1nc(N)c2c(ccc3nccc32)[nH]1`, with -30.1% (inactive).
The same measure, in the same setting: with `COC(=O)COc1ccc(-c2nccc(-c3ccccn3)n2)cc1` the figure was 19.3% (inactive).
Consider `Cc1cc(C(=O)CN2C(=O)c3ccccc3S2(=O)=O)c(C)n1C(C)C`, for which the activity change, negative = cytotoxicity is 15.7% (inactive).
Still for that read-out and setting: with `COc1ccc(S(=O)(=O)N=Nc2c(O)[nH]c3ccccc23)cc1` the figure was 16.2% (inactive); with `O=C(NCc1ccccn1)c1ccc(CNS(=O)(=O)c2cccc(Cl)c2)cc1`, -15.8% (inactive); with `CCN1CCN(/C=N/c2nc3c(s2)CCCC3)CC1`, -6.91% (inactive).
Still for that read-out and setting: with `COC(=O)c1cccc(NC(=O)NC(=O)c2ccc(Cl)cc2)c1` the figure was -17% (inactive); with `COc1cc(/C=C/C(=O)/C=C(O)/C=C/c2ccc(O)c(OC)c2)ccc1O`, -35.9% (inactive); with `C[C@H](CO)N1C[C@H](C)[C@@H](CN(C)Cc2ccc(Oc3ccccc3)cc2)Oc2ccc(NS(=O)(=O)c3ccc(Cl)cc3)cc2CC1=O`, -17.7% (inactive).
The same measure, in the same setting: with `CC(Oc1cccc(Cl)c1)C(=O)NCCCCc1ccccc1` (configuration not stated) the figure was -2.08% (inactive); with `N#C[C@H]1[C@H](c2ccc(-c3ccccc3F)cc2)[C@@H](CO)N1C(=O)c1ccccn1`, -19.7% (inactive).
Take `CC(C)NC(=O)N(C)C[C@@H]1Oc2cc(C#Cc3ccc(F)cc3)ccc2S(=O)(=O)N([C@H](C)CO)C[C@H]1C`: the activity change, negative = cytotoxicity was -0.81% (inactive).
Turning to `CC(NC(=O)c1ccco1)c1nc(-c2ccc(C(C)(C)C)cc2)no1` (configuration not stated), the activity change, negative = cytotoxicity was -23% (inactive).
On the same count and under the same terms, then `COC(=O)C[C@H]1CC[C@H]2[C@H](COc3ccc(NC(=O)Nc4cccc(Cl)c4)cc3C(=O)N2C)O1`, with -28.3% (inactive).
Take `Cc1ccc(C(C(=O)NCc2ccco2)N(C(=O)CNC(=O)c2cccs2)c2c(C)cc(C)cc2C)cc1` (configuration not stated): the activity change, negative = cytotoxicity was -19.4% (inactive).
As to `O=C(O)c1ccc(N/N=C/c2cc(Br)cs2)cc1`, the activity change, negative = cytotoxicity was -9.61% (inactive).
Same read-out and setting: then `N#C[C@@H]1[C@H](c2ccc(C#Cc3cccc(F)c3)cc2)[C@@H](CO)N1C(=O)C1CCCC1`, with 38% (inactive); and `COc1ccc(/C=C2\SC(=O)N(CCCC(=O)Nc3ccc(C(=O)O)cc3)C2=O)cc1`, with -14.1% (inactive); and `COC(=O)C[C@H]1CC[C@@H](NC(=O)Nc2ccc(C(F)(F)F)cc2)[C@H](CO)O1`, with 9.14% (inactive).
Same read-out and setting: with `CN(C)c1ccc(/C=N/Nc2nc3ccccc3o2)cc1` the figure was -21.5% (inactive); with `CCNC(=O)c1cccc(S(=O)(=O)N2CCCCCC2)c1`, -6.96% (inactive).
Still for that read-out and setting: then `CCc1ccc2oc(C(=O)N3CCN(c4ccccc4OC)CC3)cc(=O)c2c1`, with -13.2% (inactive).
As for `O=C(CN1C(=O)c2ccccc2S1(=O)=O)c1ccc(F)cc1`, the activity change, negative = cytotoxicity is 6.26% (inactive).
On the same count and under the same terms, with `CC(C)Oc1ccc(Br)cc1C(=O)N/N=C/c1c[nH]c2ccccc12` the figure was -16.4% (inactive); with `CCCCCCN(C(=O)CCCCCN1C(=O)NC(c2ccc(Cl)cc2)C(C(=O)OCc2ccccc2)=C1C)C(C(=O)NCCCC)c1ccc(OCC(=O)OC)c(C(=O)OC)c1` (configuration not stated), -3.96% (inactive); with `CCc1ccc(Cn2ncc3c(C(=O)O)cc(C)nc32)cc1`, -2.66% (inactive).
Turning to `C(=C\c1ccc(C2[C@H]3CNC[C@@H]2N3Cc2ccccn2)cc1)/c1ccccc1` (some centres not stated), the activity change, negative = cytotoxicity is 39.5% (inactive).
The same measure, in the same setting: then `O=c1[nH]c(/C=C2\C=Nc3ccccc32)c(O)n1Cc1ccccc1F`, with -17.6% (inactive).
Same read-out and setting: then `CC(C)(C)c1ccc(Oc2ccc(N)cn2)cc1`, with -15.7% (inactive); and `CC(=O)ON=C1C=CC(=C(C#N)c2ccccc2)C=C1`, with -28.3% (inactive).
Still for that read-out and setting: then `COC(=O)C[C@H]1C=C[C@@H](NC(=O)Nc2ccc(C(F)(F)F)cc2)[C@H](CO)O1`, with 4.22% (inactive); and `O=C(Nc1ccc(NC(=O)c2cc3ccccc3o2)cc1)c1ccc2c(c1)OCCO2`, with 7.63% (inactive); and `O=c1oc2cc(O)ccc2s1`, with -7.52% (inactive).
In the case of `N#CC1=C(N)Oc2cc(N)ccc2C1c1cccc(F)c1` (configuration not stated), the activity change, negative = cytotoxicity was -13.6% (inactive).
`COc1ccc(/C=C2/NC(=O)N(CC(=O)Nc3cccc(C)c3)C2=O)cc1O`: the activity change, negative = cytotoxicity was -15.3% (inactive).
In the case of `C[C@@H]1CN([C@H](C)CO)C(=O)c2cc(C#CCc3ccccc3)cnc2O[C@@H]1CN(C)Cc1cccc(F)c1`, the activity change, negative = cytotoxicity was -3.37% (inactive).
On the same count and under the same terms, with `Cc1nn(-c2ccc(F)cc2)c2nc(N)c(C#N)c(-c3ccc(O)c(O)c3)c12` the figure was -12.7% (inactive); with `Cc1ccc(S(=O)(=O)Nc2ccc3c(c2)C(=O)N([C@H](C)CO)C[C@@H](C)[C@@H](CN(C)Cc2ccc(C(=O)Nc4ccccc4N)cc2)O3)cc1`, -2.74% (inactive).
On the same count and under the same terms, with `CC1=NC(=O)C(N=Nc2cccc(C(=O)O)c2)N1c1ccccc1` (configuration not stated) the figure was -10% (inactive); with `C/C=C/c1ccc([C@H]2[C@@H](CO)N3C(=O)CN(S(=O)(=O)c4cccc(F)c4)C[C@@H]23)cc1`, 34.3% (inactive); with `CCOc1ccc(N=C2C(=O)Nc3ccc(C)c(Br)c32)cc1`, -10.6% (inactive).
On the same count and under the same terms, then `CC(C)(C)C(=O)Nc1ccc(N=Nc2ccccc2)cc1`, with -5.33% (inactive).
As for `O=C(Nc1cccc(S(=O)(=O)N2CCCC2)c1)c1ccc(Cl)nc1`, the activity change, negative = cytotoxicity is -35.5% (inactive).
With `O=C1Nc2ccccc2C1=Nc1ccccc1-c1ccccc1`, the activity change, negative = cytotoxicity is -21.1% (inactive).
Same read-out and setting: then `COc1ccc(/C=C2\SC(=O)N(CCCC(=O)Nc3cc(Cl)ccc3C(=O)O)C2=O)cc1`, with -2.58% (inactive); and `Cc1ccc(Cc2c(-c3ccco3)nc3c(C)cc(Br)cn23)cc1`, with 15.5% (inactive).
Still for that read-out and setting: then `CC1(C)Oc2cc3oc(-c4cc(O)cc(O)c4)cc3cc2CC1O` (configuration not stated), with -1.31% (inactive).
The same measure, in the same setting: with `Cc1ccc(S(=O)(=O)Nc2ccc3c(c2)C(=O)N([C@@H](C)CO)C[C@@H](C)[C@H](CN(C)Cc2ccc(C(F)(F)F)cc2)OCCCC[C@H](C)O3)cc1` the figure was -33.3% (inactive).
Turning to `O=C(CNC(=O)Cc1ccccc1)N=Nc1c(O)n(Cc2ccc3c(c2)OCO3)c2ccccc12`, the activity change, negative = cytotoxicity is -23.2% (inactive).
On the same count and under the same terms, then `CCOc1ccc(/C=C2\CCc3ccccc3C2=O)cc1`, with -4.04% (inactive); and `C=CCOc1ccccc1C(=O)/C=C1/C(=O)Nc2ccccc21`, with -8.17% (inactive); and `CCCc1cc(=O)oc2c3c(c4c(c12)OC(C)(C)C=C4)OC(C)C(C)C3O` (configuration not stated), with -7.17% (inactive).
Same read-out and setting: with `COc1ccc(/C=C2\SC(=S)N(CCCC(=O)NNC(=O)c3ccccc3O)C2=O)cc1` the figure was 13.3% (inactive); with `CN(C)c1ccc(N=Nc2ccccc2Br)cc1`, -16.8% (inactive); with `Cc1ccc(C(=O)CN2C(=O)c3ccccc3S2(=O)=O)cc1`, -1.54% (inactive).
Take `Nc1cc2c(cc1Br)[nH]c(=O)c1ccccc12`: the activity change, negative = cytotoxicity is 17.5% (inactive).
On the same count and under the same terms, then `COc1ccc2oc(C(=O)NCCc3ccccc3)c(C)c2c1`, with -22.1% (inactive).
Consider `Cc1ccccc1N=CC1=C(O)c2ccccc2C1=O`, for which the activity change, negative = cytotoxicity was 1.79% (inactive).
Still for that read-out and setting: with `O=C(O)c1cccc(N/N=C/c2cccs2)c1` the figure was -19.1% (inactive).
